Data on 87 compounds can be found in a melting point compilation (Tetko et al.; mined from patent text by program, amines drawn as free bases though some values may be those of a salt).

One may read the melting point as the temperature of the solid-liquid transition.

Some results are limits rather than exact numbers.

On to `COc1ccccc1Oc1c(Cl)nc(SC)nc1NS(=O)(=O)c1ccc(C(C)(C)C)cc1`, for which the melting point fell in the range of 123 to 124 °C.

Compound `COc1cc2nc(N3CCN(C(=O)C4CCCC4)CC3)nc(N)c2cc1OC` registered a melting point of 256 to 259 °C.

For the compound `CCC(=O)NCCC1CCc2cc(F)c3c(c21)C=CCO3` (configuration not stated), the melting point was 106 to 108 °C.

`Fc1ccc(Cn2c(NC3CCN(CCNC(=S)NCc4cccnc4)CC3)nc3ccccc32)cc1` showed a melting point of 147 °C.

In turn, `Cc1c(-c2ccc(O)cc2)sc(C#N)c1-c1cccc(O)c1` came in with a melting point of 220 to 222 °C.

Consider `CCc1cc(Br)c2c(=O)oc(=O)[nH]c2c1`, for which the melting point fell in the range of 236 to 237 °C.

On to `CC1=NNC(c2ccc3c(c2)Nc2nccnc2S3)=NN1`, for which the melting point lay within 233 to 235 °C.

The compound `Cn1nc(-c2ccc(C(=N)N)cc2)cc(C(=O)N[C@H]2CC[C@H](C(=O)O)CC2)c1=O` had a melting point of 263 to 266 °C.

`CN1C(=O)[C@H](NC(=O)Nc2ccc(Cl)cc2Cl)N=C(c2ccccc2)c2ccccc21` displayed a melting point of 215 to 216 °C.

`CC(=O)Oc1ccc(-c2ccc3cc(OC(C)=O)ccc3c2)cc1` yielded a melting point of 178 to 180 °C.

In the case of `O=C(NNS(=O)(=O)c1ccccc1)c1ccc(-c2ccccc2)cc1`, the melting point lay within 216 to 219 °C.

The compound `CCC(Cc1ccc(OC)c(C(=O)NCc2ccc(C(F)(F)F)cc2)c1)C(=O)O` (configuration not stated) yielded a melting point of 128 to 130 °C.

For the compound `CC(C)c1ccc(CCC(O)(P(=O)(O)O)P(=O)(O)O)cc1`, the melting point amounted to 174 °C.

As to `NC(=O)CN1C(=O)C[C@@H]2CCCCC[C@@H]21` (relative stereo), the melting point was in the range of 140 to 142 °C.

In turn, `O=[N+]([O-])C1CC=CCC1c1ccccc1` (configuration not stated) returned a melting point of 114 to 116 °C.

As for `CCSc1cc(-c2ccc(Cl)cc2Cl)ccc1C#N`, the melting point lay within 89 to 92 °C.

Consider `Oc1ccc(Nn2cccc2)c2ccccc12`, for which the melting point lay within 83 to 84 °C.

Regarding `CSc1ccc2oc3ccccc3c2c1`, the melting point lay within 85 to 87 °C.

The compound `CN1c2ccccc2N(C(=O)CN2CCCC2)c2ccccc2S1(=O)=O` yielded a melting point of 175 to 177 °C.

In turn, `COCc1c(C(=O)OC(C)C)ncc2[nH]c3ccc(OCc4ccccc4Cl)cc3c12` returned a melting point of 135 to 141 °C.

As to `Cc1nc2n(C)ccn2c(=O)c1CCN1CCC(Nc2nc3ccccc3[nH]2)CC1`, the melting point is 230 °C.

The compound `COc1cc(COc2nn(-c3ccccc3)cc2/C=C2\SC(=O)NC2=O)ccc1OCc1nc(-c2ccco2)oc1C` yielded a melting point of 252 to 253 °C.

`Cc1oc(-c2ccco2)nc1COc1ccc(COc2nn(Cc3ccccc3)cc2C(=O)O)cc1-c1ccccc1`: the melting point is 181 to 182 °C.

Regarding `CCCCCCCCCCCCOc1ccc(-c2cc3ccccc3[nH]2)cc1OC`, the melting point is 104 °C.

`N#CCCNC(=O)c1cccc(-c2ccc3c(c2)N(c2ccc(Cl)cc2Cl)CCCC3)c1` had a melting point of 139 to 142 °C.

The compound `CCOc1ccc([N+](=O)[O-])c(Nc2ccc(C(C)C)cc2)c1` gave a melting point of 100 °C.

As for `O=C(Nc1nnn[nH]1)c1ccc2nc3ccsc3c(=O)n2c1`, the melting point was in the range of 295 to 296 °C.

As for `CC(C)(C)C(=O)Nc1nc(OCCCCOCc2ccccc2)ccc1C=O`, the melting point is 82 to 84 °C.

With `COC(=O)c1ccc(CNc2cc(C(=O)Nc3ccccc3)ccc2OC)cc1`, the melting point was 170 to 172 °C.

Compound `O=C(O)c1ccc(NCCOc2ccc(F)cc2)cc1` gave a melting point of 209 to 210 °C.

With `CC(C)(C)CN(CC(O)C(Cc1ccccc1)NC(=O)C(CC(N)=O)NC(=O)c1ccc2ccccc2n1)C(=O)NC(C)(C)C` (configuration not stated), the melting point lay in the range of 115 to 117 °C.

`CN1CCCC1=NCCSc1cc2ccccc2[nH]1`: the melting point lay within 175 to 177 °C.

Take `COc1ccc(C(CS(C)(=O)=O)N2C(=O)c3cccc(NC(C)=O)c3C2=O)cc1OCC1CC1` (configuration not stated): the melting point fell in the range of 102 to 104 °C.

As to `CS(=O)(=O)NC[C@@H]1CN(c2ccc(N3CCC(O)(CN=[N+]=[N-])CC3)c(F)c2)C(=O)O1`, the melting point is 142 to 144 °C.

The compound `Cn1ncc(C(=O)N2CCC2)c1C(=O)Nc1ccc2nc(-c3cccnc3)nn2c1` yielded a melting point of 272 °C.

Regarding `CC(C)n1c(C(=O)O)c(-c2ccc(F)cc2)c2ccccc2c1=O`, the melting point lay within 128 to 130 °C.

As for `CC(C)(C)OC(=O)c1ccc(CBr)cc1`, the melting point is 53.4 °C.

Compound `CCCc1cnc(N2CCC(c3ccc(COc4ccc(C#N)c(F)c4)nc3)CC2)nc1` displayed a melting point of 118 to 120 °C.

In the case of `O=C(Nc1nccs1)c1nc(-c2cccc3ccccc23)[nH]c1-c1ccc(C(F)(F)F)cc1`, the melting point fell in the range of 222 to 223 °C.

Take `CCOC(=O)c1cc2c(cn1)[nH]c1cccc(Oc3ccc([N+](=O)[O-])cn3)c12`: the melting point fell in the range of 298 to 300 °C.

The compound `Cc1cccc(C)c1C1C(=O)CC(C)(C)CC1=O` registered a melting point of 177 to 186 °C.

The compound `CCOC(=O)c1c(CS(=O)(=O)c2nccn2C)nc2cc(OC)c(OC)cc2c1-c1ccc(OC)c(OC)c1` displayed a melting point of 183 to 184 °C.

`O=c1n(Cc2ccccc2)c2cc(Cl)ccc2n1C1CCNCC1`: the melting point was 128 °C.

The compound `Cc1sc2c(Br)c3ccccc3c(-c3cc(Br)c(O)c(Br)c3)c2c1C` displayed a melting point of 172 to 174 °C.

For the compound `C#Cc1ccc([C@H]2CC[C@H](CCCCC)CC2)nn1`, the melting point lay within 114 to 116 °C.

In the case of `CN1C(=O)C(NC(=O)CCC2CCCCC2)N=C(c2ccccc2)c2ccsc21` (configuration not stated), the melting point was in the range of 189 to 190 °C.

`Cc1cnc(Cl)c2c3cc(O)ccc3n(C)c12` yielded a melting point of more than 260 °C.

On to `N#Cc1ccc(Cn2cc(C=C3C(=O)NC(=O)NC3=O)c3ccccc32)cc1`, for which the melting point is more than 300 °C.

In the case of `CCNC(=N)Nc1nc2ccc(OC(F)(F)F)cc2s1`, the melting point is 127 to 129 °C.

As for `CCn1ncc2c(NCc3cccc(O)c3)c3ccccc3nc21`, the melting point is more than 240 °C.

For the compound `COc1ccc(CC2Cc3cc(C)cnc3C(OC(C)=O)C2)cc1` (single isomer, unassigned; (+)), the melting point lay within 94 to 98 °C.

Regarding `CCCc1c(C)c2ccc(O)cc2oc1=O`, the melting point fell in the range of 160 to 173 °C.

In the case of `Cc1cc(NC(=O)CCc2cccs2)cc(C)c1O`, the melting point is 158 to 159 °C.

With `Nc1cccc(C=C2c3ccccc3CCc3ccccc32)c1`, the melting point amounted to 204 °C.

The compound `N#CC(Sc1ccccc1)=C1SCCN1c1ccccc1` returned a melting point of 143 to 145 °C.

The compound `COC(=O)C1CCc2oc3cc(OC)ccc3c2C1=O` (configuration not stated) displayed a melting point of 173 to 175 °C.

As to `CN1CC(CN)Oc2c(-c3ccc(Cl)cc3Cl)cccc21` (configuration not stated), the melting point was 90 °C.

Consider `CC(=O)NCCC1CCc2ccc3c(c21)CCO3` (configuration not stated), for which the melting point lay within 78 to 79 °C.

As for `CCN(C(=O)SC(C)(C)C)c1cn(-c2cccnc2)nc1Cl`, the melting point lay in the range of 91 to 93 °C.

`O=CN1C(=O)c2ccccc2OC1C(Cl)(Cl)Cl` (configuration not stated) showed a melting point of 114 °C.

For the compound `COc1ccc(C(=O)c2ccc(SCc3ccccc3)s2)cc1`, the melting point fell in the range of 103 to 105 °C.

Compound `CSCc1nc2c(N)nc3ccccc3c2n1Cc1ccccc1` gave a melting point of 217 to 219 °C.

`CCCn1nc2c(N)nc3ccccc3c2c1CC(C)(C)NC(=O)C1CCCCC1` came in with a melting point of 190 to 191 °C.

`CC(C)[C@H](NC(=O)OCc1cccnc1)C(=O)N[C@@H](Cc1ccccc1)[C@@H](O)[C@@H](O)[C@H](Cc1ccccc1)NC(=O)OC(C)(C)C` registered a melting point of 175 to 178 °C.

In turn, `NC(=O)c1ncn(C2OC(COC(=O)c3ccccc3)C(O)C2O)n1` (configuration not stated) gave a melting point of 182 to 184 °C.

`O=C(NCCn1cncn1)c1sc2ccccc2c1Cl`: the melting point lay within 151 to 152 °C.

Regarding `CC(C)(C)c1ccc(S(=O)(=O)Oc2ccc(C(c3ccc(OS(=O)(=O)c4ccc(C(C)(C)C)cc4)cc3)(C(F)(F)F)C(F)(F)F)cc2)cc1`, the melting point was 177 to 180 °C.

Take `CCOP(=S)(OCC)SC(=CC(=O)c1cccc(Br)c1)C(=O)O`: the melting point lay in the range of 107 to 111 °C.

`N#CC(CC1CCCCC1)c1n[nH]c2cc(O)ccc12` (configuration not stated) gave a melting point of 175 °C.

The compound `C[C@]12C[C@H](c3ccc(OCCCCCS(=O)(=O)CCCC(F)(F)C(F)(F)F)cc3)[C@@H]3c4ccc(OC5CCCC5)cc4CC[C@H]3[C@@H]1CC[C@@H]2O` yielded a melting point of 166 °C.

Take `O=C(O)CCC(=O)Nc1ccc(-c2ccncc2)cc1`: the melting point lay within 251 to 252 °C.

Turning to `CC(=O)SCC(C)C(=O)Nc1cncc(C(=O)O)c1` (configuration not stated), the melting point lay within 154 to 158 °C.

For the compound `CCC(c1ccccn1)N(Cc1ccc(C(=O)OC)cc1)S(=O)(=O)c1ccc(F)cc1` (configuration not stated), the melting point was in the range of 82 to 84 °C.

`Cc1ccc(Cl)cc1N1C(=O)CN=C1SCc1ccccc1` had a melting point of 140 to 142 °C.

Compound `CN(Cc1ccc(NC(=O)C2=Cc3cc(-c4ccc(N5CCCC5)cc4)ccc3OCC2)cc1)C1CCOCC1` registered a melting point of 210 to 211 °C.

`CC(=O)SCCc1noc(C(C)c2ccc(-c3ccccc3)c(F)c2)n1` (configuration not stated) came in with a melting point of 56 to 57 °C.

The compound `CCCCOC(=O)C(OC(=O)C(C)C)OC(=O)N1CCN(c2cc3c(cc2F)c(=O)c(C(=O)O)cn3CC)CC1` (configuration not stated) registered a melting point of 152 to 160 °C.

`Cc1ccccc1Oc1cc(Cl)ccc1C(=O)O` had a melting point of 158 to 159 °C.

In turn, `Nc1ccc(OC(=O)C2CCCCC2)c(C(=O)O)c1` showed a melting point of 116 to 121 °C.

Regarding `CC(=O)OC1C(C)OC(Oc2nc[nH]c2C(N)=O)C(OC(C)=O)C1OC(C)=O` (configuration not stated), the melting point was in the range of 184 to 186 °C.

`COc1ccc(C(=O)CO)cc1`: the melting point lay within 101 to 103 °C.

Consider `CN1CCC2(CC1)NC(=S)N(c1ccc(C#N)c(C(F)(F)F)c1)C2=N`, for which the melting point is more than 264 °C.

On to `COc1ccc(C(=O)O)cc1C#CCN(C)C`, for which the melting point fell in the range of 167 to 170 °C.

For `CCCCNc1ccn2ncc(Br)c2n1`, the melting point is 94 to 95 °C.

Compound `COc1ccc(CC(C(=O)O)N(CCCNC(=O)OC(C)(C)C)C(=O)CBr)cc1` (configuration not stated) gave a melting point of 79 to 81 °C.

Compound `CCOC(=O)c1c(N2CC3CC2CN3)c2cc(C)ccc2n(Cc2ccccc2)c1=O` (configuration not stated) had a melting point of more than 72 °C.

Take `N#Cc1cccc2c3c([nH]c12)CCNC3`: the melting point is 230 to 235 °C.
